Values after ≈ are worked out from the molar mass of the structure shown.
Assays:
Assay type in all cases: functional
Bacillus subtilis = assay: Minimum inhibitory concentration (MIC) preventing growth of Bacillus subtilis
Escherichia coli = assay: Minimum inhibitory concentration (MIC)preventing growth of Escherichia coli
Enterococcus faecalis = assay: Minimum inhibitory concentration (MIC) preventing growth of Streptococcus faecalis ATCC 10541
[1] = tested on: Staphylococcus epidermidis; assay: Minimum inhibitory concentration (MIC) preventing growth of Staphylococcus epidermidis
Pseudomonas aeruginosa = assay: Minimum inhibitory concentration (MIC)preventing growth of Pseudomonas aeruginosa
Enterobacter cloacae = assay: Minimum inhibitory concentration (MIC)preventing growth of Enterobacter cloacae
Klebsiella pneumoniae = assay: Minimum inhibitory concentration (MIC)preventing growth of Klebsiella pneumoniae
Staphylococcus aureus = assay: Minimum inhibitory concentration (MIC) preventing growth of […]
Bacillus cereus = assay: Minimum inhibitory concentration (MIC) preventing growth of Bacillus cereus
Morganella morganii = assay: Minimum inhibitory concentration (MIC) preventing growth of Morganella morganii
Proteus vulgaris = assay: Minimum inhibitory concentration (MIC) preventing growth of Proteus vulgaris

MIC (Bacillus subtilis) [µg/mL]	MIC (Escherichia coli) [µg/mL]	MIC (Enterococcus faecalis) [µg/mL]	MIC [1] [µg/mL]	MIC (Pseudomonas aeruginosa) [µg/mL]	MIC (Enterobacter cloacae) [µg/mL]	MIC (Klebsiella pneumoniae) [µg/mL]	MIC (Staphylococcus aureus) [µg/mL]	MIC (Bacillus cereus) [µg/mL]	MIC (Morganella morganii) [µg/mL]	MIC (Proteus vulgaris) [µg/mL]	Compound
0.25 (≈ 0.78 µM)	0.25 (≈ 0.78 µM)	2 (≈ 6.24 µM)	1 (≈ 3.12 µM)	2 (≈ 6.24 µM)	0.25 (≈ 0.78 µM)	0.12 (≈ 0.375 µM)	1 (≈ 3.12 µM)	1 (≈ 3.12 µM)	0.25 (≈ 0.78 µM)	1 (≈ 3.12 µM)	CCn1cc(C(=O)O)c(=O)c2cc(F)c(N3CC(C)(N)C3)nc21
0.06 (≈ 0.137 µM)	0.12 (≈ 0.275 µM)	0.03 (≈ 0.0687 µM)	0.06 (≈ 0.137 µM)	0.5 (≈ 1.15 µM)	0.06 (≈ 0.137 µM)	0.25 (≈ 0.573 µM)	0.06 (≈ 0.137 µM)	0.06 (≈ 0.137 µM)	0.12 (≈ 0.275 µM)	0.25 (≈ 0.573 µM)	CC1(N)CN(c2c(F)c(N)c3c(=O)c(C(=O)O)cn(-c4ccc(F)cc4F)c3c2F)C1
0.25 (≈ 0.704 µM)	1 (≈ 2.81 µM)	4 (≈ 11.3 µM)	1 (≈ 2.81 µM)	4 (≈ 11.3 µM)	1 (≈ 2.81 µM)	1 (≈ 2.81 µM)	1 (≈ 2.81 µM)	1 (≈ 2.81 µM)	1 (≈ 2.81 µM)	1 (≈ 2.81 µM)	CC1(N)CN(c2c(F)cc3c(=O)c(C(=O)O)cn(CCF)c3c2F)C1
0.12 (≈ 0.298 µM)	0.12 (≈ 0.298 µM)	0.12 (≈ 0.298 µM)	0.25 (≈ 0.62 µM)	2 (≈ 4.96 µM)	0.25 (≈ 0.62 µM)	0.12 (≈ 0.298 µM)	0.25 (≈ 0.62 µM)	0.25 (≈ 0.62 µM)	0.25 (≈ 0.62 µM)	0.25 (≈ 0.62 µM)	CC1(N)CN(c2cc3c(cc2F)c(=O)c(C(=O)O)cn3-c2ccc(F)cc2F)C1
0.015 (≈ 0.0468 µM)	0.25 (≈ 0.781 µM)	1 (≈ 3.12 µM)	0.12 (≈ 0.375 µM)	2 (≈ 6.24 µM)	0.25 (≈ 0.781 µM)	0.25 (≈ 0.781 µM)	0.25 (≈ 0.781 µM)	0.25 (≈ 0.781 µM)	0.25 (≈ 0.781 µM)	0.25 (≈ 0.781 µM)	O=C(O)c1cn(C2CC2)c2c(F)c(N3CCC3)c(F)cc2c1=O
2 (≈ 5.91 µM)	0.12 (≈ 0.355 µM)	0.25 (≈ 0.739 µM)	0.5 (≈ 1.48 µM)	1 (≈ 2.96 µM)	0.12 (≈ 0.355 µM)	0.25 (≈ 0.739 µM)	0.5 (≈ 1.48 µM)	0.25 (≈ 0.739 µM)	0.12 (≈ 0.355 µM)	0.5 (≈ 1.48 µM)	CCn1cc(C(=O)O)c(=O)c2c(N)c(F)c(N3CC(N)C3)c(F)c21
0.015 (≈ 0.0355 µM)	0.015 (≈ 0.0355 µM)	0.06 (≈ 0.142 µM)	0.06 (≈ 0.142 µM)	0.12 (≈ 0.284 µM)	0.015 (≈ 0.0355 µM)	0.06 (≈ 0.142 µM)	0.03 (≈ 0.071 µM)	0.06 (≈ 0.142 µM)	0.03 (≈ 0.071 µM)	0.12 (≈ 0.284 µM)	Nc1c(F)c(N2CC(N)C2)c(F)c2c1c(=O)c(C(=O)O)cn2-c1ccc(F)cc1F
0.015 (≈ 0.0471 µM)	0.12 (≈ 0.377 µM)	1 (≈ 3.14 µM)	0.12 (≈ 0.377 µM)	2 (≈ 6.28 µM)	0.12 (≈ 0.377 µM)	0.12 (≈ 0.377 µM)	0.12 (≈ 0.377 µM)	0.12 (≈ 0.377 µM)	0.25 (≈ 0.785 µM)	0.12 (≈ 0.377 µM)	O=C(O)c1cn(C2CC2)c2cc(N3CC(O)C3)c(F)cc2c1=O
0.06 (≈ 0.156 µM)	0.12 (≈ 0.311 µM)	2 (≈ 5.19 µM)	0.12 (≈ 0.311 µM)	2 (≈ 5.19 µM)	0.12 (≈ 0.311 µM)	0.12 (≈ 0.311 µM)	0.12 (≈ 0.311 µM)	0.12 (≈ 0.311 µM)	0.25 (≈ 0.649 µM)	0.25 (≈ 0.649 µM)	CC1(N)CN(c2cc3c(cc2F)c(=O)c(C(=O)O)cn3-c2ccc(F)cc2)C1
0.03 (≈ 0.0866 µM)	0.007 (≈ 0.0202 µM)	0.12 (≈ 0.346 µM)	0.06 (≈ 0.173 µM)	0.25 (≈ 0.722 µM)	0.03 (≈ 0.0866 µM)	0.03 (≈ 0.0866 µM)	0.06 (≈ 0.173 µM)	0.06 (≈ 0.173 µM)	0.015 (≈ 0.0433 µM)	0.12 (≈ 0.346 µM)	NC1CN(c2cc3c(cc2F)c(=O)c2c(=O)[nH]sc2n3C2CC2)C1
0.06 (≈ 0.165 µM)	0.25 (≈ 0.688 µM)	0.5 (≈ 1.38 µM)	0.5 (≈ 1.38 µM)	4 (≈ 11 µM)	0.25 (≈ 0.688 µM)	0.06 (≈ 0.165 µM)	0.25 (≈ 0.688 µM)	0.25 (≈ 0.688 µM)	0.25 (≈ 0.688 µM)	0.25 (≈ 0.688 µM)	NC(=O)C1CN(c2c(F)cc3c(=O)c(C(=O)O)cn(C4CC4)c3c2F)C1
0.06 (≈ 0.149 µM)	0.25 (≈ 0.623 µM)	2 (≈ 4.98 µM)	0.25 (≈ 0.623 µM)	4 (≈ 9.96 µM)	0.25 (≈ 0.623 µM)	0.015 (≈ 0.0374 µM)	0.25 (≈ 0.623 µM)	0.25 (≈ 0.623 µM)	0.5 (≈ 1.25 µM)	0.5 (≈ 1.25 µM)	CC(=O)CN(C)C1(C)CN(c2cc3c(cc2F)c(=O)c(C(=O)O)cn3C2CC2)C1
0.015 (≈ 0.0362 µM)	0.25 (≈ 0.603 µM)	0.5 (≈ 1.21 µM)	0.06 (≈ 0.145 µM)	8 (≈ 19.3 µM)	0.5 (≈ 1.21 µM)	0.015 (≈ 0.0362 µM)	0.06 (≈ 0.145 µM)	0.12 (≈ 0.29 µM)	0.5 (≈ 1.21 µM)	0.25 (≈ 0.603 µM)	CS(=O)(=O)OC1CN(c2c(F)cc3c(=O)c(C(=O)O)cn(C4CC4)c3c2F)C1
0.03 (≈ 0.0793 µM)	0.06 (≈ 0.159 µM)	0.5 (≈ 1.32 µM)	0.06 (≈ 0.159 µM)	0.5 (≈ 1.32 µM)	0.06 (≈ 0.159 µM)	0.06 (≈ 0.159 µM)	0.12 (≈ 0.317 µM)	0.12 (≈ 0.317 µM)	0.06 (≈ 0.159 µM)	0.12 (≈ 0.317 µM)	CC1(N)CN(c2c(F)cc3c(=O)c4c(=O)[nH]sc4n(C4CC4)c3c2F)C1
